In US20260207623A1, “USE OF ESTETROL IN HEPATICALLY IMPAIRED PATIENTS” (ESTETRA SRL, priority 2022, published 2026):

How the values were obtained:
Format in all cases: in vivo, human
post-menopausal women [1] = assay: Example 3: menopause-specific Quality of Life (MENQOL) questionnaire; settings: compared to placebo treatment
post-menopausal women [2] = assay: Example 2: number of patients with endometrial biopsies
Method: If during the course of the trial, a double layer endometrial thickness≥15 mm was detected on TVUS and/or abnormal uterine bleeding (in the judgement of the gynecologist in light of the estrogen therapy) was reported by a non-hysterectomied person, they underwent an endometrial biopsy and was treated with progestin (10 mg dydrogesterone) QD until end of Week 11 in a sequential way (i.e., a 14 day progestin treatment period followed by a 14 day progestin treatment pause) in addition to the E4/placebo treatment. […] If an abnormal uterine bleeding occurred again after a first normal endometrial biopsy, a thorough gynaecological examination and a TVUS were performed. If necessary in the judgment of the gynecologist, a second endometrial biopsy was performed.
1. Number of Patients with Biopsies

post-menopausal women [3] = assay: Example 2 dose-finding study: weekly severity of moderate to severe VMS; settings: for LS adjusted mean change from baseline in weekly severity of moderate to severe VMS: week 12, ANCOVA
Source text: A severity scoring system to define the different severity categories of VMS is commonly used in the technical field: • a score of mild (1) for a sensation of heat without sweating; • a score of moderate (2) for a sensation of heat with sweating/the subject is able to continue activity; and • a score of severe (3) for a sensation of heat with sweating/which causes cessation of activity.
In addition, a severity score of zero is attributed to the patients who have experienced a 100% VMS relief during a given week. From these score records, the VMS severity at baseline is typically calculated by taking into account only moderate and severe VMS, such that the total number of moderate VMS during the 7 days of the baseline week is multiplied by 2 and added to the total number of severe VMS during the 7 days of the baseline week multiplied by 3. This total is then divided by the total number of moderate and severe VMS during the baseline week.
The severity at weeks 4 and 12 is calculated using the following formula for each of these weeks: • the number of mild VMS during 7 days multiplied by 1; • the number of moderate VMS during 7 days multiplied by 2; • the number of severe VMS during 7 days multiplied by 3; and adding the 3 resulting numbers together before dividing this total by the total number of mild, moderate and severe VMS during the 7 days of the week.
All treatments (Estetrol, hereinafter E4 as monohydrate, [2.5 mg, 5 mg, 10 mg, 15 mg] capsule) were administered once daily (QD) per os for at least 12 consecutive weeks until the last biological assessments (Day 91 maximum) had been performed.
In order to better analyse the data recorded in this study, treatment groups have been compared using an ANCOVA (analysis of covariance) with respect to the change in severity of moderate to severe VMS from baseline to mild, moderate and severe VMS at week 4 and week 12 for each active treatment versus placebo. For women who experienced 100% VMS relief at week 4 and/or week 12, a value of zero was attributed. The ANCOVA model includes treatment (“trt1”) as a fixed effect and baseline (“base”) as a covariate.

For C[C@]12CC[C@@H]3c4ccc(O)cc4CC[C@H]3[C@@H]1[C@@H](O)[C@@H](O)[C@@H]2O [E4 monohydrate, estetrol monohydrate], the “total MENQOL scores” value (post-menopausal women [1]) was “significantly improved”, the “Number of patients with biopsies” value (post-menopausal women [2]; 2.5 mg daily) was 4 and the “Number of patients with biopsies” value (post-menopausal women [2]; 5 mg daily) was 5. The “Number of patients with biopsies” value (post-menopausal women [2]; 10 mg daily) was 11, the “Number of patients with biopsies” value (post-menopausal women [2]; 15 mg daily) was 9 and the requirements for biopsies (post-menopausal women [2]; 15 mg per day group compared with 10 mg per day group) was “less requirements for biopsies”. The “Mean change from baseline in weekly severity of moderate to severe VMS” value (post-menopausal women [3]; 2.5 mg QD, week 0) was 0, the “Mean relative change (% from baseline) in weekly severity of moderate to severe VMS” value (“Mean relative change (% from baseline)” below) (post-menopausal women [3]; 2.5 mg QD, week 0) was 0% and the “Mean relative change (% from baseline)” value (post-menopausal women [3]; 2.5 mg QD, week 1) was −7%. For the same molecule, the “Mean relative change (% from baseline)” value (post-menopausal women [3]; 2.5 mg QD, week 2) was −9%, the “Mean relative change (% from baseline)” value (post-menopausal women [3]; 2.5 mg QD, week 3) was −14% and the “Mean relative change (% from baseline)” value (post-menopausal women [3]; 2.5 mg QD, week 4) was −15%. For the same molecule, the “Mean relative change (% from baseline)” value (post-menopausal women [3]; 2.5 mg QD, week 5) was −17%, the “Mean relative change (% from baseline)” value (post-menopausal women [3]; 2.5 mg QD, week 6) was −22% and the “Mean relative change (% from baseline)” value (post-menopausal women [3]; 2.5 mg QD, week 7) was −20%. For the same molecule, the “Mean relative change (% from baseline)” value (post-menopausal women [3]; 2.5 mg QD, week 8) was −24%, the “Mean relative change (% from baseline)” value (post-menopausal women [3]; 2.5 mg QD, week 9) was −24% and the “Mean relative change (% from baseline)” value (post-menopausal women [3]; 2.5 mg QD, week 10) was −26%. For the same molecule, the “Mean relative change (% from baseline)” value (post-menopausal women [3]; 2.5 mg QD, week 11) was −25%, the “Mean relative change (% from baseline)” value (post-menopausal women [3]; 2.5 mg QD, week 12) was −28% and the “Mean change from baseline in weekly severity of moderate to severe VMS” value (post-menopausal women [3]; 5 mg QD, week 0) was 0. For the same molecule, the “Mean relative change (% from baseline)” value (post-menopausal women [3]; 5 mg QD, week 0) was 0%, the “Mean relative change (% from baseline)” value (post-menopausal women [3]; 5 mg QD, week 1) was −4% and the “Mean relative change (% from baseline)” value (post-menopausal women [3]; 5 mg QD, week 2) was −5%. The “Mean relative change (% from baseline)” value (post-menopausal women [3]; 5 mg QD, week 3) was −7%, the “Mean relative change (% from baseline)” value (post-menopausal women [3]; 5 mg QD, week 4) was −10% and the “Mean relative change (% from baseline)” value (post-menopausal women [3]; 5 mg QD, week 5) was −7%. The “Mean relative change (% from baseline)” value (post-menopausal women [3]; 5 mg QD, week 6) was −14%, the “Mean relative change (% from baseline)” value (post-menopausal women [3]; 5 mg QD, week 7) was −12% and the “Mean relative change (% from baseline)” value (post-menopausal women [3]; 5 mg QD, week 8) was −14%. For the same molecule, the “Mean relative change (% from baseline)” value (post-menopausal women [3]; 5 mg QD, week 9) was −14%, the “Mean relative change (% from baseline)” value (post-menopausal women [3]; 5 mg QD, week 10) was −15% and the “Mean relative change (% from baseline)” value (post-menopausal women [3]; 5 mg QD, week 11) was −18%. The “Mean relative change (% from baseline)” value (post-menopausal women [3]; 5 mg QD, week 12) was −17%, the “Mean change from baseline in weekly severity of moderate to severe VMS” value (post-menopausal women [3]; 10 mg QD, week 0) was 0 and the “Mean relative change (% from baseline)” value (post-menopausal women [3]; 10 mg QD, week 0) was 0%. For the same molecule, the “Mean relative change (% from baseline)” value (post-menopausal women [3]; 10 mg QD, week 1) was −8%, the “Mean relative change (% from baseline)” value (post-menopausal women [3]; 10 mg QD, week 2) was −13% and the “Mean relative change (% from baseline)” value (post-menopausal women [3]; 10 mg QD, week 3) was −17%. For the same molecule, the “Mean relative change (% from baseline)” value (post-menopausal women [3]; 10 mg QD, week 5) was −21%, the “Mean relative change (% from baseline)” value (post-menopausal women [3]; 10 mg QD, week 6) was −26% and the “Mean relative change (% from baseline)” value (post-menopausal women [3]; 10 mg QD, week 7) was −27%. For the same molecule, the “Mean relative change (% from baseline)” value (post-menopausal women [3]; 10 mg QD, week 8) was −28%, the “Mean relative change (% from baseline)” value (post-menopausal women [3]; 10 mg QD, week 9) was −28% and the “Mean relative change (% from baseline)” value (post-menopausal women [3]; 10 mg QD, week 10) was −29%. For the same molecule, the “Mean relative change (% from baseline)” value (post-menopausal women [3]; 10 mg QD, week 11) was −25%, the “Mean relative change (% from baseline)” value (post-menopausal women [3]; 10 mg QD, week 12) was −28% and the “LS adjusted mean change from baseline in weekly severity of moderate to severe VMS” value (post-menopausal women [3]; 10 mg QD) was −0.6934. The “Mean change from baseline in weekly severity of moderate to severe VMS” value (post-menopausal women [3]; 15 mg QD, week 0) was 0, the “Mean relative change (% from baseline)” value (post-menopausal women [3]; 15 mg QD, week 0) was 0% and the “Mean relative change (% from baseline)” value (post-menopausal women [3]; 15 mg QD, week 1) was −3%. For the same molecule, the “Mean relative change (% from baseline)” value (post-menopausal women [3]; 15 mg QD, week 2) was −12%, the “Mean relative change (% from baseline)” value (post-menopausal women [3]; 15 mg QD, week 3) was −20% and the “Mean relative change (% from baseline)” value (post-menopausal women [3]; 15 mg QD, week 4) was −24%. The “Mean relative change (% from baseline)” value (post-menopausal women [3]; 15 mg QD, week 5) was −31%, the “Mean relative change (% from baseline)” value (post-menopausal women [3]; 15 mg QD, week 6) was −30% and the “Mean relative change (% from baseline)” value (post-menopausal women [3]; 15 mg QD, week 7) was −34%. The “Mean relative change (% from baseline)” value (post-menopausal women [3]; 15 mg QD, week 8) was −37%, the “Mean relative change (% from baseline)” value (post-menopausal women [3]; 15 mg QD, week 9) was −38% and the “Mean relative change (% from baseline)” value (post-menopausal women [3]; 15 mg QD, week 10) was −40%. The “Mean relative change (% from baseline)” value (post-menopausal women [3]; 15 mg QD, week 11) was −42%, the “Mean relative change (% from baseline)” value (post-menopausal women [3]; 15 mg QD, week 12) was −44% and the “LS adjusted mean change from baseline in weekly severity of moderate to severe VMS” value (post-menopausal women [3]; 15 mg QD) was −1.042.
